Measurements from patent US10155027B2, “Alpha-galactosidase A and 1-deoxygalactonojirimycin co-formulation for the treatment of fabry disease” (Amicus Therapeutics, Inc., priority 2012, dated 2018).
Where a name gives a salt, the structure may show the parent alone. Read-outs that look alike come from different tables or passages of the source.

Key:
[1] = General toxicology NOAEL, rat; format: in vivo
[2] = Phase 1 single ascending dose 2-hour IV infusion PK in healthy subjects (Cohorts 1-3); format: in vivo, human; conditions: for Vd / AUC(0-t) / AUC(0-inf) / Tmax / half-life / Cmax: human, plasma; for Vd: iv; for AUC(0-t): read-out: AUC0-t (geometric mean)
Method: Healthy volunteers received migalastat HCl (DGJ HCl) via the intravenous (IV) route of administration to evaluate safety, tolerability, and pharmacokinetics. Another study was performed to determine the absolute bioavailability of migalastat after an oral capsule dose as compared to an IV administered dose of migalastat HCl in healthy volunteers. The absolute bioavailability arm was added to determine the exposure ratio of a 150 mg oral dose relative to a 150 mg dose administered as an IV infusion.
Type of Study: This Phase 1 study was a single-center study consisting of 2 designs. Cohorts 1, 2, and 3 were performed according to a randomized, double-blind, placebo-controlled, single ascending dose (SAD) IV study design to evaluate the safety, tolerability, and PK of IV administered migalastat HCl or IV administered placebo in healthy subjects. Cohort 4 was an open-label, randomized two-way crossover arm designed to assess the absolute bioavailability of orally administered migalastat HCl relative to IV administered migalastat HCl in healthy subjects.
Cohorts 1, 2, 3: Subjects in Cohorts 1, 2, and 3 received IV administered single ascending doses of migalastat HCl. Seven subjects were enrolled into each cohort (5 subjects randomized to migalastat HCl and 2 subjects randomized to placebo). Dosing of Cohorts 1, 2, and 3 was staggered to allow for safety and tolerability review before proceeding with the next group. Therefore, Cohorts 1, 2, and 3 were each divided into 2 sub-groups: Group A (2 subjects randomized to migalastat HCl and 1 subject randomized to placebo) and Group B (3 subjects randomized to migalastat HCl and 1 subject randomized to placebo). Subjects in Group B were dosed the day following completion of Group A dosing. Except for Cohort 3B, which was dosed 31 days after Cohort 3A because an interim PK review was performed on emerged data from Cohort 3A. Additionally, initiation of infusion was staggered by 60 minutes for Group A subjects, and by 30 minutes for Group B subjects (see FIG. 12).
Subjects enrolled in Cohorts 1, 2, and 3 were randomized to receive one of the following doses of migalastat HCl (n=5) or placebo (n=2): […]

[3] = predicted human exposure at 0.3 mg/kg IV
[4] = predicted human exposure at 10.0 mg/kg IV
[5] = 1.0 mg/kg vs 0.3 mg/kg, theoretical 3.33
[6] = 10 mg/kg vs 0.3 mg/kg, theoretical 33.3

OC[C@H]1NC[C@H](O)[C@@H](O)[C@H]1O [migalastat HCl, (2R,3S,4R,5S)-2-(hydroxymethyl) piperdine-3,4,5-triol]
Fold Cover to NOAEL AUC, Rat [1, 3]: 134
Fold Cover to NOAEL Cmax, Rat [1, 3]: 65
Fold Cover to NOAEL AUC, Rat [1, 4]: 4.05
Fold Cover to NOAEL Cmax, Rat [1, 4]: 1.93
AUC ([1]; rat, in vivo, 1500 mg/kg/day): 24900 ng·h/mL
Cmax ([1]; rat, in vivo, 1500 mg/kg/day): 23400 ng/mL
NOAEL ([1]; rat, in vivo, general toxicology): 1500 mg/kg/day
CLT (arithmetic mean) ([2]; 0.3 mg/kg IV): 6.59 L/h
CLT (arithmetic mean) ([2]; 1.0 mg/kg IV): 7.68 L/h
Ratio Test/Reference, AUC0-t [2, 5]: 3.01
Ratio Test/Reference, AUC0-∞ [2, 5]: 2.99
Ratio Test/Reference, Cmax [2, 5]: 2.89
CLT (arithmetic mean) ([2]; 10 mg/kg IV): 7.40 L/h
Ratio Test/Reference, AUC0-t [2, 6]: 35.5
Ratio Test/Reference, AUC0-∞ [2, 6]: 35.2
Ratio Test/Reference, Cmax [2, 6]: 33.9
dose proportionality of plasma exposure parameters ([2]; 0.3 to 10 mg/kg single ascending IV dose range): appeared to be dose proportional
Vd ([2]; 0.3 mg/kg, 0.3 mg/kg IV, read-out: Vss (arithmetic mean)): 17.9 L
Vd ([2]; 0.3 mg/kg, 0.3 mg/kg IV, read-out: Vz (arithmetic mean)): 19.9 L
Vd ([2]; 1 mg/kg, 1.0 mg/kg IV, read-out: Vss (arithmetic mean)): 24.2 L
Vd ([2]; 1 mg/kg, 1.0 mg/kg IV, read-out: Vz (arithmetic mean)): 35 L
Vd ([2]; 10 mg/kg, 10 mg/kg IV, read-out: Vss (arithmetic mean)): 27.2 L
Vd ([2]; 10 mg/kg, 10 mg/kg IV, read-out: Vz (arithmetic mean)): 107 L
Vd ([2]; 0.3 to 10 mg/kg IV, read-out: Vss, range over doses): 17.9 to 27.2 L
Vd ([2]; 0.3 to 10 mg/kg IV, read-out: arithmetic mean Vz, range over doses): 19.9 to 107 L
AUC(0-t) ([2]; 0.3 mg/kg IV): 2280 ng·h/mL
AUC(0-inf) ([2]; 0.3 mg/kg IV, read-out: AUC0-∞ (geometric mean)): 2320 ng·h/mL
Tmax ([2]; 0.3 mg/kg IV, read-out: tmax (median)): 1.93 h
half-life ([2]; 0.3 mg/kg IV, read-out: t½ (arithmetic mean) (converted)): 125 min
AUC(0-t) ([2]; 1.0 mg/kg IV): 6860 ng·h/mL
AUC(0-inf) ([2]; 1.0 mg/kg IV, read-out: AUC0-∞ (geometric mean)): 6920 ng·h/mL
Tmax ([2]; 1.0 mg/kg IV, read-out: tmax (median)): 1.93 h
half-life ([2]; 1.0 mg/kg IV, read-out: t½ (arithmetic mean) (converted)): 193 min
AUC(0-t) ([2]; 10 mg/kg IV): 81100 ng·h/mL
AUC(0-inf) ([2]; 10 mg/kg IV, read-out: AUC0-∞ (geometric mean)): 81400 ng·h/mL
Tmax ([2]; 10 mg/kg IV, read-out: tmax (median)): 1.93 h
half-life ([2]; 10 mg/kg IV, read-out: t½ (arithmetic mean) (converted)): 600 min
half-life ([2]; 0.3 to 10 mg/kg IV, read-out: arithmetic mean apparent terminal t½, range over doses): 125 to 600 min
AUC(0-inf) ([2]; 0.3 to 10 mg/kg IV, read-out: geometric mean AUC0-∞, range over doses): 2320 to 81400 ng·h/mL
Cmax ([2]; 0.3 to 10 mg/kg IV, read-out: geometric mean Cmax, range over doses): 609 to 20700 ng/mL
Tmax ([2]; dose levels of 0.3, 1.0, and 10 mg/kg IV, post start of infusion, read-out: median tmax): 1.93 h
Cmax ([2]; 0.3 mg/kg IV, 2-hour infusion, read-out: Cmax (geometric mean)): 609 ng/mL
Cmax ([2]; 1.0 mg/kg IV, 2-hour infusion, read-out: Cmax (geometric mean)): 1760 ng/mL
Cmax ([2]; 10 mg/kg IV, 2-hour infusion, read-out: Cmax (geometric mean)): 20700 ng/mL
